Reference: ChEMBL document CHEMBL1133229, “Parallel synthesis and evaluation of N-(1-phenylethyl)-5-phenyl-imidazole-2-amines as Na+/K+ ATPase inhibitors” (Bioorg Med Chem Lett, 2000)

How the values were obtained:
[1] = target: Sodium/potassium-transporting ATPase; test: Inhibition of myocardial Na+/K+ ATPase from canine cardiac sarcolemma; type: protein-complex assay, Canis lupus familiaris
Cavia porcellus = species on record: Cavia porcellus; test: Compound was evaluated for inotropic activity in guinea pig papillary muscle; type: functional; settings: Muscle tissue

SMILES | IC50 [1] | EC50 (Cavia porcellus)
C[C@@H](Nc1ncc(-c2ccccc2)n1C)c1ccccc1 | 10 µM | 
CC(Nc1ncc(-c2cc(C(F)(F)F)cc(C(F)(F)F)c2)n1C)c1ccccc1 (centres undefined) | 88 µM | 
COc1cc2c(cc1OC)-c1cnc(NCc3ccccc3)n1CC2 |  | 1 µM
CCC(Nc1ncc(-c2ccccc2)n1C)c1ccc(Cl)cc1 (centres undefined) | 0.8 µM | 
C[C@H](Nc1ncc(-c2ccccc2)n1C)c1ccccc1 | 61 µM | 
CC(Nc1ncc(-c2ccccc2)n1C)c1ccc(F)cc1 (centres undefined) | 10 µM | 
CC(Nc1ncc(-c2cccc(-c3ccccc3)c2)n1C)c1ccccc1 (centres undefined) | 14 µM | 
CCC(C)C(Nc1ncc(-c2ccccc2)n1C)c1ccccc1 (centres undefined) | 77 µM | 
CC(Nc1ncc(-c2ccccc2)n1C)c1ccc(Cl)cc1 (centres undefined) | 1.3 µM | 
CC(Nc1ncc(-c2ccc3ccccc3c2)n1C)c1ccccc1 (centres undefined) | 2.1 µM | 
COc1ccc(-c2cnc(NC(C)c3ccccc3)n2C)cc1OC (centres undefined) | 99 µM | 
CC(Nc1ncc(-c2ccccc2)n1C)c1ccccc1 (centres undefined) | 38 µM | 
CC(Nc1ncc(-c2cc(F)cc(F)c2)n1C)c1ccccc1 (centres undefined) | 52 µM | 
CC(Nc1ncc(-c2ccc(OC(F)(F)F)cc2)n1C)c1ccccc1 (centres undefined) | 33 µM | 
